Values belong to the molecule of their own block, whether it stands above or below them.
What was measured:
GlTgs = target: T1, GlTgs (Giardia duodenalis, UniProt A8BW33); assay: 3H methyl transfer, PEI-cellulose TLC; assay type: biochemical; conditions: 0.1 mM m7GDP, 5 μM [methyl-3H]AdoMet, 37 °C; single methylation to DMG
T1 sequence (A8BW33 1-258): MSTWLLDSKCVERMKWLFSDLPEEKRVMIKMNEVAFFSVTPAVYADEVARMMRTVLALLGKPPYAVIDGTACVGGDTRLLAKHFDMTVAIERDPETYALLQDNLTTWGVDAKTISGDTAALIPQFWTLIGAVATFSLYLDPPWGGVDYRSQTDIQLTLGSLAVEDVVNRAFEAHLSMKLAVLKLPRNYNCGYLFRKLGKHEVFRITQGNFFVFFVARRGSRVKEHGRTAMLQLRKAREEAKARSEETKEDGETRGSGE

TvTgs = target: T2, TvTgs (Trichomonas vaginalis, UniProt A2DM16); assay: radiometric 3H methyl transfer, DEAE filter; assay type: biochemical
T2 sequence (A2DM16 1-280): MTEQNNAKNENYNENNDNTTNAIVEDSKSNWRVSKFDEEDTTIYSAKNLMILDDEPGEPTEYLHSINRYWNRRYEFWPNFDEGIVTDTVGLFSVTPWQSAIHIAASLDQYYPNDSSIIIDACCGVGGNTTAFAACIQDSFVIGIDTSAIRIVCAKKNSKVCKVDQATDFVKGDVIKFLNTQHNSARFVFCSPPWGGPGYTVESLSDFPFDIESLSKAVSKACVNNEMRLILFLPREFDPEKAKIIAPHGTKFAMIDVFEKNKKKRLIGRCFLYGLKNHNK

[1] = substrate: C[n+]1cn([C@@H]2O[C@H](COP(=O)(O)OP(=O)(O)OP(=O)(O)O)[C@@H](O)[C@H]2O)c2nc(N)[nH]c(=O)c21; assay: radiometric 3H methyl transfer, DEAE filter; assay type: biochemical, Trichomonas vaginalis; conditions: [methyl-3H]AdoMet co-substrate, pH 7.5, 37 °C
[2] = substrate: C[n+]1cn([C@@H]2O[C@H](COP(=O)(O)OP(=O)(O)O)[C@@H](O)[C@H]2O)c2nc(N)[nH]c(=O)c21; assay: radiometric 3H methyl transfer, DEAE filter; assay type: biochemical, Trichomonas vaginalis; conditions: [methyl-3H]AdoMet co-substrate, pH 7.5, 37 °C

Molecule: C[n+]1cn([C@@H]2O[C@H](COP(=O)(O)OP(=O)(O)O)[C@@H](O)[C@H]2O)c2nc(N)[nH]c(=O)c21 [m^7GDP]
- 3H methyl transfer, PEI-cellulose TLC (GlTgs): TvTgs (Tv), GlTgs (Gl) and SpTgs (Sp) were compared side by side

- IC50 (TvTgs): ~250 µM
Molecule: Nc1ncnc2c1ncn2[C@@H]1O[C@H](CSCC[C@H](N)C(=O)O)[C@@H](O)[C@H]1O [AdoHcy]

B1: TvTgs (Trichomonas vaginalis G3) (protein)
chain: T2 sequence (A2DM16 1-280)
- Km [1]: 1.59 +/– 0.205 mM
- Km [2]: 250 +/– 30.7 μM

From PMC2588526 (Nucleic Acids Research, 2008)
